Like-named read-outs stand apart in the source and are kept apart here.
Assays:
[1] = test system: HepG-2, HCT-116, and MCF-7; assay: MTT anti-proliferative assay, ranges stated over several cell lines; type: cell-based; conditions: Homo sapiens
tubulin = assay: In vitro tubulin polymerisation inhibition (turbidimetric, fluorescent plate reader); type: biochemical; conditions: mean of three experiments
Protocol: The inhibition assay on microtubule polymerisation was evaluated turbidimetrically using a fluorescent plate reader.
The effect of the synthesised compounds on tubulin polymerisation was assessed turbidimetrically using a fluorescent plate reader method. The complete procedure was depected in Supplementary data.

HepG-2 = assay: MTT anti-proliferative assay, HepG-2; type: cell-based, human; conditions: for IC50: Homo sapiens; for times of colchicine cytotoxic activity, HepG-2: ratio of IC50 to colchicine
MCF-7 = assay: MTT anti-proliferative assay, MCF-7; type: cell-based, human; conditions: for IC50: Homo sapiens
HepG-2 cells [2] = assay: Cell cycle analysis by flow cytometry; type: cell-based, human; conditions: HepG-2, 1.89 µM, 24 h
Protocol: The impact of the most promising compound 25 on cell cycle distribution was assessed. Such analysis gave a better insight into the effect of the synthesised compounds on cancer cell growth inhibition. HepG-2 cells were utilised in this test. The reported method described by Wand et al.[50] was followed.
The effect of the most promising compound 25 on cell cycle was evaluated using flowcytometer[50]^,[53]^,[54] as illustrated in Supplementary data.

HCT-116 = assay: MTT anti-proliferative assay, HCT-116; type: cell-based, human; conditions: for IC50: Homo sapiens; for times of colchicine cytotoxic activity, HCT-116: ratio of IC50 to colchicine
HepG-2 cells [3] = assay: Annexin V-FITC/PI apoptosis assay; type: cell-based, human; conditions: HepG-2, 1.89 µM, 24 h
Protocol: Annexin V and PI double staining assay[51] was carried out to explore the proposed apoptotic effect of the synthesised compounds. Compound 25 as a representative example was tested against HepG-2 cells. In this test, HepG-2 cells were incubated with compound 25 at a concentration of 1.89 µM for 24 h.
The effect of compound 25 on apoptosis induction was analysed using Annexin V-FITC/PI apoptosis detection kit using flowcytometer[51]^,[55]^,[56] as illustrated in Supplementary data.

[4] = range over HepG-2, HCT-116 and MCF-7 and over the listed compounds, read-out: IC50 values ranging (all tested cell lines)
[5] = HepG2, MTT, mean ± SD of three experiments, read-out: IC50 HepG-2
[6] = MCF7, MTT, mean ± SD of three experiments, read-out: IC50 MCF-7
[7] = HCT-116, MTT, mean ± SD of three experiments, read-out: IC50 HCT-116
[8] = range over HCT-116 and MCF-7 and over the listed compounds, read-out: IC50 values ranging (HCT-116 and MCF-7)

Structure (SMILES)	IC50 [1, 4]	IC50 (tubulin)	IC50 (HepG-2; [5])	times of colchicine cytotoxic activity, HepG-2 (HepG-2)	IC50 (MCF-7; [6])	IC50 (HCT-116; [7])	times of colchicine cytotoxic activity, HCT-116 (HCT-116)	melting point	IC50 [1, 8]	other results
COc1ccc2nc(Cl)c(C3CC(c4cc(OC)c(OC)c(OC)c4)=NN3c3ccc([N+](=O)[O-])cc3[N+](=O)[O-])cc2c1 (stereo not drawn) [Compound 25, 2-Chloro-3-[1–(2,4-dinitrophenyl)-3–(3,4,5-trimethoxyphenyl)-4,5-dihydro-1H-pyrazol-5-yl]-6-methoxyquinoline]	1.78 to 9.19 µM	0.0413 µM	1.89 ± 0.2 µM	3.91 times	4.21 ± 0.1 µM	1.43 ± 0.1 µM	6.51 times	135 to 136 °C	–	times of colchicine cytotoxic activity, MCF-7 (MCF-7; ratio of IC50 to colchicine): 2.47 times; effect on cell cycle (HepG-2 cells [2]): arrest the cell cycle at G2/M phase; Cell cycle distribution %Pre-G1 (HepG-2 cells [2]; control 2.57): 21.46%; Cell cycle distribution %G2-M (HepG-2 cells [2]; control 13.8): 30.17%; Cell cycle distribution %S (HepG-2 cells [2]; control 24.83): 28.95%; Cell cycle distribution %G0-G1 (HepG-2 cells [2]; control 61.37): 40.88%; apoptotic effect relative to control (HepG-2 cells [3]): thirteen times more than the control; Apoptosis Early (HepG-2 cells [3]; control 0.67): 7.66%; Apoptosis Late (HepG-2 cells [3]; control 0.72): 11.39%; Necrosis (HepG-2 cells [3]; control 1.18): 2.41%; apoptotic effect (early and late apoptosis) (HepG-2 cells [3]; control 1.39%): 19.05%
COc1ccc2nc(Cl)c(C3CC(c4ccc(Cl)cc4)=NN3c3ccccc3)cc2c1 (stereo not drawn) [Compound 20, 2-Chloro-3-[3–(4-chlorophenyl)-1-phenyl-4,5-dihydro-1H-pyrazol-5-yl]-6-methoxyquinoline]	1.78 to 9.19 µM	0.0368 µM	2.6 ± 0.1 µM	5.15 times	4.51 ± 0.2 µM	1.81 ± 0.1 µM	2.84 times	145 to 146 °C	–	–
COc1ccc2nc(Cl)c(-c3cc(-c4cc(OC)c(OC)c(OC)c4)nc(=S)[nH]3)cc2c1 [Compound 28, 6–(2-Chloro-6-methoxyquinolin-3-yl)-4–(3,4,5-trimethoxyphenyl)pyrimidine-2(1H)-thione]	1.78 to 9.19 µM	0.0374 µM	5.47 ± 0.2 µM	–	7.34 ± 0.2 µM	5.85 ± 0.3 µM	–	141 to 142 °C	–	–
COc1ccc2nc(Cl)c(C3CC(c4ccc(Cl)cc4)=NN3C(N)=S)cc2c1 (stereo not drawn) [Compound 14, 5–(2-Chloro-6-methoxyquinolin-3-yl)-3–(4-chlorophenyl)-4,5-dihydro-1H-pyrazole-1-carbothioamide]	–	0.0501 µM	8.92 ± 0.4 µM	–	10 ± 0.4 µM	7.62 ± 0.4 µM	–	136 to 137 °C	6.48 to 10.3 µM	–
COc1ccc2nc(Cl)c(-c3cc(-c4ccc(Cl)cc4)nc(=O)[nH]3)cc2c1 [Compound 32, 6–(2-Chloro-6-methoxyquinolin-3-yl)-4–(4-chlorophenyl)pyrimidin-2(1H)-one]	–	0.0105 µM	8.16 ± 0.2 µM	–	9.89 ± 0.4 µM	6.48 ± 0.2 µM	–	180 to 181 °C	6.48 to 10.3 µM	–
COc1ccc2nc(Cl)c(C3CC(c4ccc(N)cc4)=NN3c3ccc([N+](=O)[O-])cc3[N+](=O)[O-])cc2c1 (stereo not drawn) [Compound 24, 4-[5–(2-Chloro-6-methoxyquinolin-3-yl)-1–(2,4-dinitrophenyl)-4,5-dihydro-1H-pyrazol-3-yl]aniline]	–	0.146 µM	–	–	–	–	–	139 to 140 °C	–	IC50 ([1]; read-out: IC50 values ranging (all tested cell lines)): 1.78 to 9.19 µM; IC50 (HepG-2; HepG2, read-out: IC50 HepG-2): 3.14 ± 0.1 µM; IC50 (MCF-7; MCF7, read-out: IC50 MCF-7): 4.97 ± 0.1 µM; IC50 (HCT-116; HCT-116, read-out: IC50 HCT-116): 4.18 ± 0.2 µM

Source: paper PMC7889231 (Journal of Enzyme Inhibition and Medicinal Chemistry, 2021)
